Measured values taken from publication PMC6513986, “Molecular basis for heat desensitization of TRPV1 ion channels” (Nature Communications, 2019).
Read-outs that look alike come from different tables or passages of the source.

Tests used:
mouse TRPV1 (mV1) = mouse TRPV1 (mV1) (Mus musculus, UniProt Q704Y3); assay: Agonist activation, patch clamp, HEK293T; assay type: cell-based; details: read-out: EC50_Capsaicin
platypus TRPV1 (pV1) = platypus TRPV1 (pV1) (Ornithorhynchus anatinus, UniProt F7A7B4); assay: Agonist activation, patch clamp, HEK293T; assay type: cell-based; details: for EC50_Capsaicin: Supp Table 1 data
Fruit bat TRPV1 = Fruit bat TRPV1 (Carollia brevicauda, UniProt G1DJ79); assay: Agonist activation, patch clamp, HEK293T; assay type: cell-based; details: read-out: EC50_Capsaicin
Tree shrew TRPV1 = Tree shrew TRPV1 (Tupaia chinensis, UniProt L8Y7X1); assay: Agonist activation, patch clamp, HEK293T; assay type: cell-based, Tupaia belangeri chinensis; details: read-out: EC50_Capsaicin
pV1_mN chimera = pV1_mN chimera (Ornithorhynchus anatinus, UniProt F7A7B4); assay: Agonist activation, patch clamp, HEK293T; assay type: cell-based, platypus / mouse; details: read-out: EC50_Capsaicin
pV1_mNC chimera = pV1_mNC chimera (Ornithorhynchus anatinus, UniProt F7A7B4); assay: Agonist activation, patch clamp, HEK293T; assay type: cell-based, platypus / mouse; details: read-out: EC50_Capsaicin
mV1 CΔ30 (Glu747-Phe776) = mV1 CΔ30 (Glu747-Phe776) (Mus musculus, UniProt Q704Y3, DEL747-776); assay: Agonist activation, patch clamp, HEK293T; assay type: cell-based; details: read-out: EC50_Capsaicin
mV1 CΔ10 (Phe830-Lys839) = mV1 CΔ10 (Phe830-Lys839) (Mus musculus, UniProt Q704Y3); assay: Agonist activation, patch clamp, HEK293T; assay type: cell-based; details: read-out: EC50_Capsaicin
mV1_241 (ANAP) = mV1_241 (ANAP) (Mus musculus, UniProt Q704Y3, K241X); assay: Agonist activation of ANAP-incorporated channel, patch clamp; assay type: cell-based
mV1_685 (ANAP) = mV1_685 (ANAP) (Mus musculus, UniProt Q704Y3, E685X); assay: as above; assay type: cell-based
[1] = system: DRG neurons of p-trpv1 mice; assay: Patch clamp of DRG neurons of p-trpv1 mice; assay type: cell-based, mouse; details: small diameter DRG neurons, patch clamping
Protocol: All recordings were performed at room temperature.
DRG neurons were acutely dissociated and maintained in a short-term primary culture according to procedures. Briefly, after mice were killed by CO2 inhalation and decapitated, vertebral column was opened by a dorsal approach. DRG neurons were collected using fine forceps from both sides of the spinal column and transferred into DMEM medium (GIBCO), and the spinal nerves were cut off using fine ophthalmological scissors and digested by […] (m/m, Sigma) for 20 min. Following the wash of collagenase and trypsin, DRG neurons were incubated at 37 °C in 5% CO2. Cells were used for electrophysiological experiments within the next 24 h.

pV1_643 (ANAP) = pV1_643 (ANAP) (Ornithorhynchus anatinus, UniProt F7A7B4, S634X)
TRPV1 = details: cited from earlier work

SMILES: COc1cc(CNC(=O)CCCC/C=C/C(C)C)ccc1O [Capsaicin, capsaicin]
- EC50 (mouse TRPV1 (mV1); Supp Table 1 data, replicate 1): 249 nM
- EC50 (mouse TRPV1 (mV1); Supp Table 1 data, replicate 2): 299 nM
- EC50 (mouse TRPV1 (mV1); Supp Table 2 data, replicate 1): 277 nM
- EC50 (mouse TRPV1 (mV1); Supp Table 2 data, replicate 2): 302 nM
- EC50 (mouse TRPV1 (mV1); Supp Table 3 data, replicate 1): 276 nM
- EC50 (mouse TRPV1 (mV1); Supp Table 3 data, replicate 2): 306 nM
- EC50 (mouse TRPV1 (mV1); Supp Table 3 data, replicate 3): 315 nM
- EC50 (mouse TRPV1 (mV1); Supp Table 4 data, replicate 1): 297 nM
- EC50 (mouse TRPV1 (mV1); Supp Table 4 data, replicate 2): 279 nM
- EC50 (mouse TRPV1 (mV1); Supp Table 4 data, replicate 3): 321 nM
- EC50_Capsaicin (platypus TRPV1 (pV1); replicate 1): 367 nM
- EC50_Capsaicin (platypus TRPV1 (pV1); replicate 2): 246 nM
- EC50_Capsaicin (platypus TRPV1 (pV1); replicate 4): 271 nM
- EC50_Capsaicin (platypus TRPV1 (pV1); replicate 5): 368 nM
- activation of pV1 by capsaicin (platypus TRPV1 (pV1); whole-cell, 10 μM): currents elicited
- EC50 (Fruit bat TRPV1; mean ± s.e.m., n = 6): 354 ± 25 nM
- EC50 (Fruit bat TRPV1; replicate 1): 273 nM
- EC50 (Fruit bat TRPV1; replicate 2): 389 nM
- EC50 (Fruit bat TRPV1; replicate 3): 419 nM
- EC50 (Fruit bat TRPV1; replicate 4): 415 nM
- EC50 (Fruit bat TRPV1; replicate 5): 274 nM
- EC50 (Fruit bat TRPV1; replicate 6): 354 nM
- EC50 (Tree shrew TRPV1; mean ± s.e.m., n = 3): 5260 nM
- EC50 (Tree shrew TRPV1; replicate 1): 4932 nM
- EC50 (Tree shrew TRPV1; replicate 2): 5507 nM
- EC50 (Tree shrew TRPV1; replicate 3): 5341 nM
- EC50 (pV1_mN chimera; mean ± s.e.m., n = 6): 313 nM
- EC50 (pV1_mN chimera; replicate 2): 294 nM
- EC50 (pV1_mN chimera; replicate 3): 360 nM
- EC50 (pV1_mN chimera; replicate 5): 279 nM
- EC50 (pV1_mNC chimera; mean ± s.e.m., n = 6): 306 nM
- EC50 (pV1_mNC chimera; replicate 3): 300 nM
- EC50 (pV1_mNC chimera; replicate 4): 276 nM
- EC50 (mV1 CΔ30 (Glu747-Phe776); mean ± s.e.m., n = 5): 372 nM
- EC50 (mV1 CΔ30 (Glu747-Phe776); replicate 1): 252 nM
- EC50 (mV1 CΔ30 (Glu747-Phe776); replicate 2): 260 nM
- EC50 (mV1 CΔ30 (Glu747-Phe776); replicate 3): 424 nM
- EC50 (mV1 CΔ30 (Glu747-Phe776); replicate 4): 463 nM
- EC50 (mV1 CΔ30 (Glu747-Phe776); replicate 5): 461 nM
- EC50 (mV1 CΔ10 (Phe830-Lys839); mean ± s.e.m., n = 6): 354 nM
- EC50 (mV1 CΔ10 (Phe830-Lys839); replicate 1): 215 nM
- EC50 (mV1 CΔ10 (Phe830-Lys839); replicate 3): 313 nM
- EC50 (mV1 CΔ10 (Phe830-Lys839); replicate 4): 407 nM
- EC50 (mV1 CΔ10 (Phe830-Lys839); replicate 5): 457 nM
- EC50 (mV1 CΔ10 (Phe830-Lys839); replicate 6): 463 nM
- EC50 (mV1_241 (ANAP)): 290 nM
- EC50_Capsaicin (mV1_241 (ANAP); replicate 1): 256 nM
- EC50_Capsaicin (mV1_241 (ANAP); replicate 2): 283 nM
- EC50_Capsaicin (mV1_241 (ANAP); replicate 3): 296 nM
- EC50_Capsaicin (mV1_241 (ANAP); replicate 4): 299 nM
- EC50_Capsaicin (mV1_241 (ANAP); replicate 5): 316 nM
- EC50 (mV1_685 (ANAP)): 295 nM
- EC50_Capsaicin (mV1_685 (ANAP); replicate 1): 321 nM
- EC50_Capsaicin (mV1_685 (ANAP); replicate 3): 335 nM
- EC50_Capsaicin (mV1_685 (ANAP); replicate 4): 287 nM
- EC50_Capsaicin (mV1_685 (ANAP); replicate 5): 299 nM
- EC50_Capsaicin (mV1_685 (ANAP); replicate 6): 268 nM
- EC50_Capsaicin (mV1_685 (ANAP); replicate 7): 335 nM
- EC50_Capsaicin (mV1_685 (ANAP); replicate 8): 254 nM
- response to capsaicin [1]: well maintained
- EC50_Capsaicin (pV1_643 (ANAP); replicate 1): 323 nM
- EC50_Capsaicin (pV1_643 (ANAP); replicate 2): 276 nM
- EC50_Capsaicin (pV1_643 (ANAP); replicate 3): 290 nM
- EC50_Capsaicin (pV1_643 (ANAP); replicate 4): 327 nM
- EC50_Capsaicin (pV1_643 (ANAP); replicate 6): 351 nM
- effect of capsaicin administration (TRPV1): a burning sensation and acute drop in body core temperature (hypothermia)
